Measured values reported in ChEMBL document CHEMBL5108021, “Discovery of 3-pyrazolyl-substituted pyrazolo[1,5-a]pyrimidine derivatives as potent TRK inhibitors to overcome clinically acquired resistance” (Eur J Med Chem, 2022).

Tests used:
[1] = tested on: BaF3; assay: animal or person; settings: Mus musculus, BaF3, po, read-out: TGI
[2] = tested on: BaF3; assay: Antitumor activity against mouse BaF3 cells expressing […]-wild type TRKA xenografted in BALB/c mouse assessed as inhibition of tumor growth at 30 mg/kg, po bid for 11 to 14 days by microcaliper analysis; format: functional; settings: time 11-14 day, read-out: TGI

SMILES	inhibition in vivo at 100 mg/kg [1]	inhibition in vivo at 30 mg/kg [2]
C[C@@H]1CCc2ncc(F)cc2[C@H]2CCCN2c2ccn3ncc(c3n2)C(=O)N1 [SELITRECTINIB]	64%	
O=C(Nc1cnn2ccc(N3CCC[C@@H]3c3cc(F)ccc3F)nc12)N1CC[C@H](O)C1 [LAROTRECTINIB]		74%
